Measurements reported in US4952393A, “Organ infarct imaging with technetium labelled glucarate” (The General Hospital Corporation, priority 1988, dated 1990).
Like-named read-outs stand apart in the source and are kept apart here.

How the values were obtained:
[1] = tested on: cerebral infarct; test: Detection of cerebral infarct in the rat (gamma imaging, localization ratio); type: in vivo, Sprague-Dawley CD rats; details: for DDC activity (mean +/- SD), ratio infarct:normal brain: 0.6 mCi, perfusion deficit marker; for Tc-99m-glucarate activity (mean +/- SD), ratio stroke regions to normal cerebral regions: i.v., 1.5-2.0 mCi
Description: Tc-99m-glucarate was used to visualize cerebral infarct regions in the rat brain.
Experimental cerebral infarcts were created in 28 Sprague-Dawley CD rats (Charles River Laboratories) by injection of thrombin-generated thrombi into an isolated carotid artery. […] Imaging was performed 1.5-2.0 hours later utilizing a gamma camera having a 3 mm diameter pin hole collimator. […] The gamma images obtained were analyzed by computer planimetry. Ratios of count densities in infarct regions and normal brain regions were calculated.

[2] = Biodistribution of 99mTc-glucarate in various organs in Balb/c mice; type: in vivo; details: i.v., 100 uCi
Description: Biodistribution studies were carried out in Balb/c mice. The mice (3 mice per group) were injected intravenously with 100 uCi of technetium-labeled D-glucarate. […]

[3] = room temperature, 1 hr
Description: Monopotassium glucarate (25 mg) was dissolved in 0.2M bicarbonate (1.0 ml) at pH 8.0. To 500 ul of glucarate solution, 40 ul of stannous chloride (2.5 mg/ml) in 0.1M acetic acid was added, followed by 500 ul of ^99m Tc generator eluate (60 mCi). The resulting solution was allowed to stand for 5 minutes at room temperature, and then analyzed for radiochemical purity by paper chromatography (Whatman 3MM, 60% CH3 CN:40% H2 O)
^99m Tc-glucarate was prepared as described in Example 1 using different concentrations of potassium glucarate (0.09-12.25 mg/ml). The products were analyzed by paper chromatography (Whatman 3MM, 60% CH3 CN:40%H2 O; ^99m TcO4 ^-Rf= 1.0, ^99m Tc-glucarate,Rf=0.4; ^99m TcO2 ×H2 O, Rf=0).

[4] = preparation made from 12 mg/ml glucarate
Description: Samples of ^99m -Tc-glucarate prepared as described in Example 1 from 6 and 12 mg/ml potassium glucarate were analyzed over a period of 7 hours.

[5] = tested on: acute myocardial infarct; test: Detection of myocardial infarct in the dog (gamma camera imaging); details: for visualization of area of acute myocardial necrosis / blood pool activity: 80 minutes after injection; for visualization of area of acute myocardial necrosis: 10 mCi
Description: Mongrel dogs (n=3) were anesthetized with intravenous pentobartitol (30 mg/kg), and respiration maintained on a Harvard respirator. Left thoractomy was performed, the heart suspended in a pericardial cradle and a segment of the left anterior descending coronary artery (LAD) approximately two thirds the distance from the apex to the base was dissected free. The LAD was then occluded with a silk ligature. After three hours of LAD occlusion, the occlusive ligature was removed and reperfusion was established. At 15 minutes of reperfusion, 200 uCi of indium labeled R11D10 Fab-DTPA (Centocor, Inc.) was injected, and 30 seconds later, 10 mCi of technetium labeled glucarate was injected. Serial imaging with a gamma camera was initiated immediately upon tracer administration.
After 5 hours of in vivo imaging sessions, the dogs were sacrificed by pentobarbital overdose. Then, the cardiac tissue was stained with an intravenous triphenyltetrazolium chloride infusion. The heart was excised, washed with cold water, and imaged as a whole excised heart; and also as heart slices cut parallel to the atrioventricular groove in four slices after overnight storage at 4° C. Each slice was then divided into eight equal pieces and each piece subdivided into epicardial and endocardial samples, weighed and then counted in a gamma well counter (LKB Compu Gamma counter) for distribution of the various radioisotopes. […] Blood samples from the contralateral vein were obtained at 1, 2, 3, 4, 5, 10, 15, 20, 30, 45, 60, and 75 minutes. […] At the time of sacrifice, tissue samples from the liver, lungs, kidneys, spleen, and skeletal muscles were also obtained.

[6] = tested on: myocardial infarct; details: Rossman et al., J. Nucl. Med. 16: 980-985 (1975); cited from earlier work
[7] = dog, listed as 99m Tc-glucarate

Substance: T1-201 diethyldithiocarbamate [DDC, reference compound]
- DDC activity (mean +/- SD), ratio infarct:normal brain ([1]; 1 hour after infarct, rats): 0.3 +/- 0.1
- DDC activity (mean +/- SD), ratio infarct:normal brain ([1]; 3 hours after infarct, rats): 0.3 +/- 0.3
- DDC activity (mean +/- SD), ratio infarct:normal brain ([1]; 5 hours after infarct, rats): 0.4 +/- 0.2
- DDC activity (mean +/- SD), ratio infarct:normal brain ([1]; 24 hours after infarct, rats): 0.3 +/- 0.2

Substance: Tc-99m-glucarate
- Biodistribution, Blood ([2]; 1 hour): 1.72 ± 0.43 % Injected Dose Per Gram
- Biodistribution, Heart ([2]; 1 hour): 0.63 ± 1.10 % Injected Dose Per Gram
- Biodistribution, Intestine ([2]; 1 hour): 2.90 ± 1.12 % Injected Dose Per Gram
- Biodistribution, Kidneys ([2]; 1 hour): 24.3 ± 4.15 % Injected Dose Per Gram
- Biodistribution, Liver ([2]; 1 hour): 1.54 ± 0.51 % Injected Dose Per Gram
- Biodistribution, Lungs ([2]; 1 hour): 3.90 ± 1.80 % Injected Dose Per Gram
- Biodistribution, Muscle ([2]; 1 hour): 0.32 ± 0.20 % Injected Dose Per Gram
- Biodistribution, Spleen ([2]; 1 hour): 0.44 ± 0.76 % Injected Dose Per Gram
- Biodistribution, Stomach ([2]; 1 hour): 0.935 % Injected Dose Per Gram
- Biodistribution, Blood ([2]; 4 hours): 1.26 ± 0.22 % Injected Dose Per Gram
- Biodistribution, Heart ([2]; 4 hours): 0.75 ± 1.30 % Injected Dose Per Gram
- Biodistribution, Intestine ([2]; 4 hours): 2.02 ± 0.90 % Injected Dose Per Gram
- Biodistribution, Kidneys ([2]; 4 hours): 28.50 ± 0.75 % Injected Dose Per Gram
- Biodistribution, Liver ([2]; 4 hours): 1.49 ± 0.08 % Injected Dose Per Gram
- Biodistribution, Lungs ([2]; 4 hours): 3.43 ± 1.35 % Injected Dose Per Gram
- Biodistribution, Muscle ([2]; 4 hours): 2.31 ± 2.98 % Injected Dose Per Gram
- Biodistribution, Stomach ([2]; 4 hours): 3.49 ± 5.10 % Injected Dose Per Gram
- Biodistribution, Blood ([2]; 8 hours): 0.90 ± 0.29 % Injected Dose Per Gram
- Biodistribution, Heart ([2]; 8 hours): 0.30 ± 0.52 % Injected Dose Per Gram
- Biodistribution, Intestine ([2]; 8 hours): 0.89 ± 0.46 % Injected Dose Per Gram
- Biodistribution, Kidneys ([2]; 8 hours): 19.20 ± 5.00 % Injected Dose Per Gram
- Biodistribution, Liver ([2]; 8 hours): 1.03 ± 0.18 % Injected Dose Per Gram
- Biodistribution, Lungs ([2]; 8 hours): 1.95 ± 1.04 % Injected Dose Per Gram
- Biodistribution, Muscle ([2]; 8 hours): 0.59 ± 0.82 % Injected Dose Per Gram
- Biodistribution, Stomach ([2]; 8 hours): 1.13 ± 0.98 % Injected Dose Per Gram
- Biodistribution, Blood ([2]; 24 hours): 0.56 ± 0.09 % Injected Dose Per Gram
- Biodistribution, Intestine ([2]; 24 hours): 0.58 ± 0.36 % Injected Dose Per Gram
- Biodistribution, Kidneys ([2]; 24 hours): 8.4 ± 1.74 % Injected Dose Per Gram
- Biodistribution, Liver ([2]; 24 hours): 0.42 ± 0.05 % Injected Dose Per Gram
- Biodistribution, Lungs ([2]; 24 hours): 1.52 ± 1.02 % Injected Dose Per Gram
- Biodistribution, Muscle ([2]; 24 hours): 0.68 ± 1.00 % Injected Dose Per Gram
- Biodistribution, Stomach ([2]; 24 hours): 0.39 ± 0.34 % Injected Dose Per Gram
- effect of duration of cerebral injury on localization ([1]; 1, 3, 5 and 24 hours, rats): did not appear to affect localization
- diffusion across the blood-brain barrier ([1]; imaging in the brain): can diffuse across the blood-brain barrier
- Tc-99m-glucarate activity (mean +/- SD), ratio stroke regions to normal cerebral regions ([1]; injection 1 hour after infarct, rats): 2.98 +/- 0.7
- Tc-99m-glucarate activity (mean +/- SD), ratio stroke regions to normal cerebral regions ([1]; injection 3 hours after infarct, rats): 4.1 +/- 1.7
- Tc-99m-glucarate activity (mean +/- SD), ratio stroke regions to normal cerebral regions ([1]; injection 5 hours after infarct, rats): 4.1 +/- 2.4
- Tc-99m-glucarate activity (mean +/- SD), ratio stroke regions to normal cerebral regions ([1]; injection 24 hours after infarct, rats): 4.8 +/- 1.9
- accumulation in stroke compared with 99mTc-glucoheptonate ([1]; rats): more rapid and intense
- ratios of activity in stroke regions to normal cerebral regions, in words ([1]; rats): maximal in all stroke animals
- time to cerebral infarct image ([1]; rats): one
- visualization of cerebral infarct regions by gamma scintigraphy ([1]; rats): All cerebral infarct regions were visualized
- % 99mTc-Glucarate ([3]; 0.09 mg/ml glucaric acid): 43.0%
- % 99mTcO2 ([3]; 0.09 mg/ml glucaric acid): 57.0%
- % 99mTc-Glucarate ([3]; 0.19 mg/ml glucaric acid): 59.0%
- % 99mTcO2 ([3]; 0.19 mg/ml glucaric acid): 41.0%
- % 99mTc-Glucarate ([3]; 0.38 mg/ml glucaric acid): 70.0%
- % 99mTcO2 ([3]; 0.38 mg/ml glucaric acid): 30.0%
- % 99mTc-Glucarate ([3]; 0.76 mg/ml glucaric acid): 75.6%
- % 99mTcO2 ([3]; 0.76 mg/ml glucaric acid): 24.4%
- % 99mTc-Glucarate ([3]; 1.53 mg/ml glucaric acid): 80.5%
- % 99mTcO2 ([3]; 1.53 mg/ml glucaric acid): 19.5%
- % 99mTc-Glucarate ([3]; 3.06 mg/ml glucaric acid): 88.5%
- % 99mTcO2 ([3]; 3.06 mg/ml glucaric acid): 11.5%
- % 99mTc-Glucarate ([3]; 6.12 mg/ml glucaric acid): 100.0%
- % 99mTcO2 ([3]; 6.12 mg/ml glucaric acid): .0%
- % 99mTc-Glucarate ([3]; 12.25 mg/ml glucaric acid): 100.0%
- % 99mTcO2 ([3]; 12.25 mg/ml glucaric acid): .0%
- stable for a period of [4]: about 2 hours
- visualization of area of acute myocardial necrosis ([5]; dog): clearly visible
- visualization of area of acute myocardial necrosis [5, 7]: clearly visualized
- blood pool activity ([5]; dog): minimum blood activity
- blood pool activity [5, 7]: minimum blood pool activity
- time to avid myocardial infarct image ([5]; dogs): one and a half
- uptake in area of myocardial infarction of the heart slices ([5]; excised heart slices, dog): Distinct uptake

Substance: ^99m Tc-D-glucoheptonate
- success as an imaging agent for myocardial infarct [6]: less successful
